Reference: PubChem BioAssay AID1963981 (Molecular Pharmacology Branch, DTP, NCI, 2024)
pIC50: −log10 of the molar value. Blank lines part the entries; values can stand above or below the compound they belong to.

Tested on: 354836-022-R-J1-PDC multicell spheroid viability
Experiment: Anticancer human tumor 354836-022-R-J1-PDC patient-derived head and neck squamous cell carcinoma cell line growth inhibition [PI3K]
Conditions: for viability, T/C: stronger effect = lower value
Procedure, shortened: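 Tumor cells were combined with HUVEC and MSCs into spheroids, then dosed with PI3K-inhibitor combinations over half-log ranges capped near clinical Cmax or 10 microM.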

[1] = curve of first compound, second compound 0.0316 µM
[2] = curve of first compound, second compound 0.1 µM
[3] = curve of first compound, second compound 0.316 µM
[4] = curve of first compound, second compound 1 µM
[5] = curve of first compound, second compound 3.16 µM
[6] = curve of first compound, second compound 10 µM
[7] = second compound 0.0316 µM, first compound 0.000316 µM
[8] = second compound 0.0316 µM, first compound 0.001 µM
[9] = second compound 0.0316 µM, first compound 0.00316 µM
[10] = second compound 0.0316 µM, first compound 0.01 µM
[11] = second compound 0.0316 µM, first compound 0.0316 µM
[12] = second compound 0.0316 µM, first compound 0.1 µM
[13] = second compound 0.1 µM, first compound 0.000316 µM
[14] = second compound 0.1 µM, first compound 0.001 µM
[15] = second compound 0.1 µM, first compound 0.00316 µM
[16] = second compound 0.1 µM, first compound 0.01 µM
[17] = second compound 0.1 µM, first compound 0.0316 µM
[18] = second compound 0.1 µM, first compound 0.1 µM
[19] = second compound 0.316 µM, first compound 0.000316 µM
[20] = second compound 0.316 µM, first compound 0.001 µM
[21] = second compound 0.316 µM, first compound 0.00316 µM
[22] = second compound 0.316 µM, first compound 0.01 µM
[23] = second compound 0.316 µM, first compound 0.0316 µM
[24] = second compound 0.316 µM, first compound 0.1 µM
[25] = second compound 1 µM, first compound 0.000316 µM
[26] = second compound 1 µM, first compound 0.001 µM
[27] = second compound 1 µM, first compound 0.00316 µM
[28] = second compound 1 µM, first compound 0.01 µM
[29] = second compound 1 µM, first compound 0.0316 µM
[30] = second compound 1 µM, first compound 0.1 µM
[31] = second compound 3.16 µM, first compound 0.000316 µM
[32] = second compound 3.16 µM, first compound 0.001 µM
[33] = second compound 3.16 µM, first compound 0.00316 µM
[34] = second compound 3.16 µM, first compound 0.01 µM
[35] = second compound 3.16 µM, first compound 0.0316 µM
[36] = second compound 3.16 µM, first compound 0.1 µM
[37] = second compound 10 µM, first compound 0.000316 µM
[38] = second compound 10 µM, first compound 0.001 µM
[39] = second compound 10 µM, first compound 0.00316 µM
[40] = second compound 10 µM, first compound 0.01 µM
[41] = second compound 10 µM, first compound 0.0316 µM
[42] = second compound 10 µM, first compound 0.1 µM
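Note: spheroids exposed to agents for seven days before the viability read.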

Structure (SMILES): CC(=O)c1c(C)c2cnc(Nc3ccc(N4CCNCC4)cn3)nc2n(C2CCCC2)c1=O + Cc1nc(NC(=O)N2CCCC2C(N)=O)sc1-c1ccnc(C(C)(C)C(F)(F)F)c1
pIC50 [1]: < 7.00
pIC50 [2]: < 7.00
pIC50 [3]: < 7.00
pIC50 [4]: < 7.00
pIC50 [5]: < 7.00
pIC50 [6]: > 9.50
viability, T/C [7]: 105%
viability, T/C [8]: 96.8%
viability, T/C [9]: 105%
viability, T/C [10]: 83.7%
viability, T/C [11]: 117%
viability, T/C [12]: 101%
viability, T/C [13]: 103%
viability, T/C [14]: 91.8%
viability, T/C [15]: 92.9%
viability, T/C [16]: 92.8%
viability, T/C [17]: 89.4%
viability, T/C [18]: 111%
viability, T/C [19]: 84.1%
viability, T/C [20]: 83.5%
viability, T/C [21]: 85.8%
viability, T/C [22]: 96.6%
viability, T/C [23]: 86.4%
viability, T/C [24]: 88.9%
viability, T/C [25]: 71%
viability, T/C [26]: 89.5%
viability, T/C [27]: 74.6%
viability, T/C [28]: 73.3%
viability, T/C [29]: 73.5%
viability, T/C [30]: 85.2%
viability, T/C [31]: 63%
viability, T/C [32]: 72.1%
viability, T/C [33]: 67.8%
viability, T/C [34]: 60%
viability, T/C [35]: 59.4%
viability, T/C [36]: 67.5%
viability, T/C [37]: 41%
viability, T/C [38]: 37.3%
viability, T/C [39]: 35.7%
viability, T/C [40]: 35.4%
viability, T/C [41]: 34.9%
viability, T/C [42]: 39.7%

Structure (SMILES): CC(C)n1nc(-c2ccc3oc(N)nc3c2)c2c(N)ncnc21 + COc1c(OCCCN2CCOCC2)ccc2c3n(c(=NC(=O)c4cnc(N)nc4)nc12)CCN3
pIC50 (curve of first compound, second compound 0.00316 µM): 7.94
pIC50 (curve of first compound, second compound 0.01 µM): 7.97
pIC50 [1]: 8.04
pIC50 [2]: > 9.50
pIC50 [3]: > 9.50
pIC50 [4]: > 9.50
viability, T/C (second compound 0.00316 µM, first compound 0.000316 µM): 103%
viability, T/C (second compound 0.00316 µM, first compound 0.001 µM): 70.8%
viability, T/C (second compound 0.00316 µM, first compound 0.00316 µM): 77.9%
viability, T/C (second compound 0.00316 µM, first compound 0.01 µM): 50.9%
viability, T/C (second compound 0.00316 µM, first compound 0.0316 µM): 33%
viability, T/C (second compound 0.00316 µM, first compound 0.1 µM): 3.49%
viability, T/C (second compound 0.01 µM, first compound 0.000316 µM): 93.3%
viability, T/C (second compound 0.01 µM, first compound 0.001 µM): 86.8%
viability, T/C (second compound 0.01 µM, first compound 0.00316 µM): 67.7%
viability, T/C (second compound 0.01 µM, first compound 0.01 µM): 52.3%
viability, T/C (second compound 0.01 µM, first compound 0.0316 µM): 28.3%
viability, T/C (second compound 0.01 µM, first compound 0.1 µM): 3.55%
viability, T/C [7]: 67%
viability, T/C [8]: 70.8%
viability, T/C [9]: 61.7%
viability, T/C [10]: 49%
viability, T/C [11]: 23.5%
viability, T/C [12]: 2.77%
viability, T/C [13]: 49%
viability, T/C [14]: 48.2%
viability, T/C [15]: 36.4%
viability, T/C [16]: 27.4%
viability, T/C [17]: 11.9%
viability, T/C [18]: 2.07%
viability, T/C [19]: 16.2%
viability, T/C [20]: 9.69%
viability, T/C [21]: 8.47%
viability, T/C [22]: 10.1%
viability, T/C [23]: 3.38%
viability, T/C [24]: 0.76%
viability, T/C [25]: 1.52%
viability, T/C [26]: 1.5%
viability, T/C [27]: 1.64%
viability, T/C [28]: 1.22%
viability, T/C [29]: 0.82%
viability, T/C [30]: 0.62%

Structure (SMILES): CC(C)n1nc(-c2ccc3oc(N)nc3c2)c2c(N)ncnc21 + Cc1nc(NC(=O)N2CCCC2C(N)=O)sc1-c1ccnc(C(C)(C)C(F)(F)F)c1
pIC50 [1]: 7.85
pIC50 [2]: 8.05
pIC50 [3]: 7.95
pIC50 [4]: 8.08
pIC50 [5]: 8.41
pIC50 [6]: > 9.50
viability, T/C [7]: 92.2%
viability, T/C [8]: 87.7%
viability, T/C [9]: 88.7%
viability, T/C [10]: 44.3%
viability, T/C [11]: 41.7%
viability, T/C [12]: 9.88%
viability, T/C [13]: 89.6%
viability, T/C [14]: 82.7%
viability, T/C [15]: 102%
viability, T/C [16]: 45.5%
viability, T/C [17]: 36%
viability, T/C [18]: 11.5%
viability, T/C [19]: 76.1%
viability, T/C [20]: 80.2%
viability, T/C [21]: 81.3%
viability, T/C [22]: 49.1%
viability, T/C [23]: 26.3%
viability, T/C [24]: 10.8%
viability, T/C [25]: 72.5%
viability, T/C [26]: 69.4%
viability, T/C [27]: 69.2%
viability, T/C [28]: 43%
viability, T/C [29]: 26.5%
viability, T/C [30]: 8.31%
viability, T/C [31]: 55.8%
viability, T/C [32]: 45.2%
viability, T/C [33]: 60.2%
viability, T/C [34]: 39.2%
viability, T/C [35]: 22%
viability, T/C [36]: 5.92%
viability, T/C [37]: 40.9%
viability, T/C [38]: 40.5%
viability, T/C [39]: 40.1%
viability, T/C [40]: 26.4%
viability, T/C [41]: 15.2%
viability, T/C [42]: 4.44%

Further lines, with some results ahead:

pIC50 (curve of compound): < 5.00
Structure (SMILES): C=CC(=O)N1CCN(c2nc(=O)n(-c3c(C)ccnc3C(C)C)c3nc(-c4c(O)cccc4F)c(F)cc23)C(C)C1 (stereo not drawn)
viability, T/C (compound 0.0316 µM): 114% [middle of 4 runs]
viability, T/C (compound 0.1 µM): 95.3% [middle of 4 runs]
viability, T/C (compound 0.316 µM): 99.3% [middle of 4 runs]
viability, T/C (compound 10 µM): 95.1% [middle of 4 runs]

pIC50 [1]: 7.81
pIC50 [2]: 7.66
pIC50 [3]: 7.79
pIC50 [4]: 7.81
pIC50 [5]: 7.71
pIC50 [6]: 7.77
Structure (SMILES): CC(C)n1nc(-c2ccc3oc(N)nc3c2)c2c(N)ncnc21 + CC(Nc1ncnc2nc[nH]c12)c1cc2cccc(Cl)c2c(=O)n1-c1ccccc1
viability, T/C [7]: 88.2%
viability, T/C [8]: 96.5%
viability, T/C [9]: 79.9%
viability, T/C [10]: 57%
viability, T/C [11]: 35.3%
viability, T/C [12]: 5.53%
viability, T/C [13]: 97.8%
viability, T/C [14]: 102%
viability, T/C [15]: 81.1%
viability, T/C [16]: 86.3%
viability, T/C [17]: 32.8%
viability, T/C [18]: 4.44%
viability, T/C [19]: 92.6%
viability, T/C [20]: 101%
viability, T/C [21]: 80.7%
viability, T/C [22]: 61.2%
viability, T/C [23]: 34.9%
viability, T/C [24]: 6.09%
viability, T/C [25]: 113%
viability, T/C [26]: 98.2%
viability, T/C [27]: 92.7%
viability, T/C [28]: 59.5%
viability, T/C [29]: 31.6%
viability, T/C [30]: 5.81%
viability, T/C [31]: 105%
viability, T/C [32]: 99%
viability, T/C [33]: 73.1%
viability, T/C [34]: 68.1%
viability, T/C [35]: 40.9%
viability, T/C [36]: 5.66%
viability, T/C [37]: 95.5%
viability, T/C [38]: 101%
viability, T/C [39]: 89.2%
viability, T/C [40]: 62.7%
viability, T/C [41]: 33.3%
viability, T/C [42]: 6.25%
